Entries after “also recorded” stand apart in the source; their conditions may differ. One block for each molecule: values may come before it.
Assays:
Assay type in all cases: cell-based
OCT3 = biological target: T1, OCT3 (Homo sapiens, UniProt O75751); test: Cellular uptake ratio, OCT3-overexpressing HEK293 cells vs empty vector; conditions: for OCT3 transport category: based on ratio uptake data at 1 µM
T1 construct: expressed in transfected cells; host or cells: HEK293, stably transfected; gift from Dr. Koepsell and Dr. Gorbulev (University of Würzburg)
T1 sequence (O75751 1-556): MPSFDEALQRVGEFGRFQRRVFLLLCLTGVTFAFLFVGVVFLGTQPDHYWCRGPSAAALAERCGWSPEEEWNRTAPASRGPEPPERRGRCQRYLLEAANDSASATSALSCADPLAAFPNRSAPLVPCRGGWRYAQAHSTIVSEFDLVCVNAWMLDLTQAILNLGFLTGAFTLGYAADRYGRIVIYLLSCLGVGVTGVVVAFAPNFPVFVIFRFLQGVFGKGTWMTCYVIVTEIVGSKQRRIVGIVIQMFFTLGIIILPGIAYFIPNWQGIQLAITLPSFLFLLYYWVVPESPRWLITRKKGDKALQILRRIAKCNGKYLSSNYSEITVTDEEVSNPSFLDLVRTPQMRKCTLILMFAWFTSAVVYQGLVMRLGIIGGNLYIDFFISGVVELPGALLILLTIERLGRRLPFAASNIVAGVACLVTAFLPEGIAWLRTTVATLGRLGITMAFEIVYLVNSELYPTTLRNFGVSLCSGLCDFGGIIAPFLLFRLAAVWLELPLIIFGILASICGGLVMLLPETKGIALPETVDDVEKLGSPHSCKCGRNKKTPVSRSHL
Procedure, shortened: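 Flp-In HEK293 cells stably expressing transporter, or empty pcDNA5/FRT vector as control, incubated at 37 °C in HBSS with 10 mM HEPES, pH 7.4, with substrate. Uptake quantified by LC-MS with internal standard and normalised to total protein. Ratio = total uptake in transporter cells divided by that in empty-vector cells.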

OCT1 wild-type = biological target: T2, OCT1 wild-type (Homo sapiens, UniProt O15245); test: Inhibition of OCT1-mediated prostaglandin uptake by MPP+; conditions: 1 mM inhibitor, 100 µM prostaglandin
T2 construct: expressed in transfected cells
Experimental: Forty-eight hours before the transport experiments, 600,000 cells were plated on 12-well plates pre-coated with poly-D-lysine and incubated at 37 °C with 5% CO2. The prepared 12-well plate with cells was positioned on a heating plate pre-warmed to 37 °C. After removing the medium, the cells were washed with 37 °C HBSS+ (10 mM HEPES in Hank’s balanced salt solution, pH 7.4). Then, one pre-defined concentration of a substrate was added to each well. The incubation period was stopped by adding 2 mL of 4 °C HBSS+ and removing the cells from the heating plate. The cells were washed twice with 4 °C HBSS+. For cell lysis, the cells were incubated for 15 min with 500 µL of 80% acetonitrile (LGC Standards, Wesel, Germany), which contained a respective internal standard (Table 1).
Figure 8 Cellular uptake of prostaglandins by OCT1. Cellular uptake ratios were determined in HEK293 cells that were transfected stably with OCT1 or its variants that were incubated with 1 µM (light blue), 10 µM (medium blue), and 100 µM (dark blue) of prostaglandin E2 and F2α for 120 s. […] Statistical significance of the uptake ratio between OCT1 and its variants and between inhibited and not inhibited OCT1 was determined using an unpaired students t-test with * p < 0.05, ** p < 0.01, and *** p < 0.001.

mutant human OCT1 D474N = biological target: T3, mutant human OCT1 D474N (Homo sapiens, UniProt O15245, D474N); test: Cellular uptake by HEK293 cells overexpressing variant OCT1 D474N; conditions: 1, 10 and 100 µM, 120 s
T3 construct: expressed in transfected cells
T3 sequence (O15245 1-554 D474N): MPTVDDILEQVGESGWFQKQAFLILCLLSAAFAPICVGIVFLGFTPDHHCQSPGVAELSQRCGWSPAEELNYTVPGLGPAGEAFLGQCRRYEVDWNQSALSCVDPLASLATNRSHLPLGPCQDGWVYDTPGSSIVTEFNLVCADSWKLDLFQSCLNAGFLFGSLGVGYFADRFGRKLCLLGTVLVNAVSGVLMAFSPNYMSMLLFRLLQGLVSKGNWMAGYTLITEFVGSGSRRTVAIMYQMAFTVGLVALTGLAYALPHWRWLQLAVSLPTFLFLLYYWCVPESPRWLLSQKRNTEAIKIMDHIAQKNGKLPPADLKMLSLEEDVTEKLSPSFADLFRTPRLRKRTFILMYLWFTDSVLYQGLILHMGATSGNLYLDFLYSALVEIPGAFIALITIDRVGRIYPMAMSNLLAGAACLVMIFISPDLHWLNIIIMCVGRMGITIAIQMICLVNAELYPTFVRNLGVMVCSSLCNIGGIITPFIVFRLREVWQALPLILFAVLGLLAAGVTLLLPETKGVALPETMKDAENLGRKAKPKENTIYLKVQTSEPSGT

SMILES: COc1cc(Cc2cnc(N)nc2N)cc(OC)c1OC [Trimethoprim, trimethoprim]
- OCT3 transport category (OCT3): 0 (no transport by OCT1, OCT2, and OCT3 occurred (i.e., no kinetic parameters or uptake ratio <2 without significance))

SMILES: N=C(N)c1ccc(OCCCCCOc2ccc(C(=N)N)cc2)cc1 [Pentamidine, pentamidine]
- OCT3 transport category (OCT3): 0 (no transport by OCT1, OCT2, and OCT3 occurred (i.e., no kinetic parameters or uptake ratio <2 without significance))

- uptake ratio by OCT3 (normalised to empty vector) (OCT3; 1 µM and 100 µM substance): below 2
SMILES: Nc1nc(=O)n([C@@H]2CS[C@H](CO)O2)cc1F [Emtricitabine, emtricitabine]

SMILES: N[C@@H](Cc1ccc(O)c(O)c1)C(=O)O [Levodopa, levodopa]
- OCT3 transport category (OCT3): 0 (no transport by OCT1, OCT2, and OCT3 occurred (i.e., no kinetic parameters or uptake ratio <2 without significance))

SMILES: CCCCC[C@H](O)/C=C/[C@H]1[C@H](O)CC(=O)[C@@H]1C/C=C\CCCC(=O)O [Prostaglandin E2, prostaglandin E2]
- uptake by OCT1 wild-type with the inhibitor MPP+ (OCT1 wild-type): statistically significantly reduced uptake
- uptake of prostaglandins by OCT1 D474N in comparison to wild-type (mutant human OCT1 D474N): reduced to the level of the control cell line; also recorded: almost abolished

SMILES: Nc1ccn([C@H]2CC[C@@H](CO)O2)c(=O)n1 [Zalcitabine, zalcitabine]
- OCT3 transport category (OCT3): 0 (no transport by OCT1, OCT2, and OCT3 occurred (i.e., no kinetic parameters or uptake ratio <2 without significance))

- uptake by OCT1 wild-type with the inhibitor MPP+ (OCT1 wild-type): not statistically significant
SMILES: CCCCC[C@H](O)/C=C/[C@@H]1[C@@H](C/C=C\CCCC(=O)O)[C@@H](O)C[C@H]1O [Prostaglandin F2α, prostaglandin F2α]
- uptake of prostaglandins by OCT1 D474N in comparison to wild-type (mutant human OCT1 D474N): reduced to the level of the control cell line
